Test [1] has as its system wildtype Wnt signaling cascade. Nature of the test: HEK293 TOP assay (Super TopFlash luciferase reporter, Wnt-3a stimulated). Type of test: cell-based. Particulars: Homo sapiens, HEK293, 16 h, HEK293 TOP reporter cells, Wnt3a at EC50, 16 hours. An outline of the steps:
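Compound series (50 μM down to 15 nM, 3.16-fold) diluted from DMSO 50-fold into CAFTY buffer, pH 7.4, 2 mM Ca^2+, 0.01% BSA, applied to Wnt-3a-stimulated HEK293 TopFlash and FOP reporter lines in parallel. Cells seeded 10000/well 24 h before; luciferase signal measured.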
In general terms: A reporter such as luciferase makes a cellular process visible.

Another test has as its target T1, TNKS2 (Homo sapiens, UniProt Q9H2K2).
T1 construct: purchased BPS Bioscience, San Diego, USA 80572 (TNKS2 Histone Ribosylation Assay Kit)
T1 sequence (Q9H2K2 1-1166): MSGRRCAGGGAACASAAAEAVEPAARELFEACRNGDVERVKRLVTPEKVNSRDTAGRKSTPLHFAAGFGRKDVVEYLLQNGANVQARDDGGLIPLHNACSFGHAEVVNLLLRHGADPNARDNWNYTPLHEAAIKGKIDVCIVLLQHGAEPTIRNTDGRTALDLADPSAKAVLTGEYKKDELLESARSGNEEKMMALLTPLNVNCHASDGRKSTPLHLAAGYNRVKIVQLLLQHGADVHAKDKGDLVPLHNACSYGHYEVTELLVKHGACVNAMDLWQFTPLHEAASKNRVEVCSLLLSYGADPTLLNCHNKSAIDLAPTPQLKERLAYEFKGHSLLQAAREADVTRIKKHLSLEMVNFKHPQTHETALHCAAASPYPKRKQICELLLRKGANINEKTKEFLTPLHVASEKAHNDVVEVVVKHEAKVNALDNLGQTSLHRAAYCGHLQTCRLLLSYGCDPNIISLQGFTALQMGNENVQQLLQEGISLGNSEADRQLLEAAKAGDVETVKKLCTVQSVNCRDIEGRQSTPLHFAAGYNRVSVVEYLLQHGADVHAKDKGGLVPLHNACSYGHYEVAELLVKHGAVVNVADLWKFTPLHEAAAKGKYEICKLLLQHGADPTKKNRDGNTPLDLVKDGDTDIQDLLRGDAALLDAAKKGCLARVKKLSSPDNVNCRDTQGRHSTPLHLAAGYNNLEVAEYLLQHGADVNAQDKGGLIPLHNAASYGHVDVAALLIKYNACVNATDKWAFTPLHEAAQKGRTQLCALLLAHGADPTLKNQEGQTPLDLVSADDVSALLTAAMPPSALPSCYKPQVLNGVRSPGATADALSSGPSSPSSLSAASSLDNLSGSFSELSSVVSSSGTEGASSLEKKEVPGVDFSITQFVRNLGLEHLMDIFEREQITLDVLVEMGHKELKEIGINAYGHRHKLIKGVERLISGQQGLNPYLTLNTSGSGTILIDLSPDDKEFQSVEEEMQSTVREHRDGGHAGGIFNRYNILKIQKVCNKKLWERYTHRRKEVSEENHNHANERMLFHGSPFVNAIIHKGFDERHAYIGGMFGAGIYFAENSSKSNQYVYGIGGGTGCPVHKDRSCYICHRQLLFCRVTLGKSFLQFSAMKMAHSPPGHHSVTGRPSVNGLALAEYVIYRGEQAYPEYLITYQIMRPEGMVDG
Nature of the test: TNKS2 Assay B (auto-parsylation, [3H]-NAD+ SPA). Type of test: biochemical. As to conditions: 6 nM TNKS2, auto-parsylation, over night at room temperature.

Test [2] relates to HEK293 cells cotransfected with the FOP control vector. Description: HEK293 FOP assay (control reporter with non-functional TCF elements). It counts as cell-based. As to conditions: Homo sapiens, 16 hours. An outline of the steps: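 Compound series from 50 μM down to 15 nM, prediluted in DMSO then 50-fold into CAFTY buffer (pH 7.4, 2 mM Ca2+, 0.01% BSA), tested alongside TOP cells on a Geneticin-selected HEK293 FOP line whose TCF elements are replaced by a random sequence; recombinant human Wnt-3a applied at 2500-5 ng/ml.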

As for `Cc1cc(N2CCC[C@]3(CC[C@@H](NC(=O)c4cnn5cccnc45)CC3)C2=O)c(Cl)cc1F` [Example 300, N-[(trans)-2-(2-chloro-4-fluoro-5-methylphenyl)-1-oxo-2-azaspiro[5.5]undec-9-yl]pyrazolo[1,5-a]pyrimidine-3-carboxamide], the values for the IC50 (in test [1]; on TNKS2; in test [2]) were 0.018 µM, 0.045 µM and no less than 0.5 µM, respectively.
Turning to `Cc1cc(N2CCC[C@]3(CC[C@@H](NC(=O)c4cnc5cccnn45)CC3)C2=O)c(Cl)cc1F` [Example 301, N-[(trans)-2-(2-chloro-4-fluoro-5-methylphenyl)-1-oxo-2-azaspiro[5.5]undec-9-yl]imidazo[1,2-b]pyridazine-3-carboxamide], the IC50 – broadly, the concentration that inhibits the measured activity by half – in test [1] is 0.028 µM; at TNKS2 it was 0.08 µM; in test [2], no less than 0.5 µM.
Turning to `Cc1cc(C)n2ncc(C(=O)N[C@H]3CC[C@@]4(CCCN(c5cc(C)c(F)cc5Cl)C4=O)CC3)c2n1` [Example 302, N-[(trans)-2-(2-chloro-4-fluoro-5-methylphenyl)-1-oxo-2-azaspiro[5.5]undec-9-yl]-5,7-dimethylpyrazolo[1,5-a]pyrimidine-3-carboxamide], the IC50 in test [1] was 0.042 µM; at TNKS2, 0.069 µM; in test [2] it was no less than 0.5 µM.
As for `COCCNC(=O)c1nc[nH]c1C(=O)N[C@H]1CC[C@@]2(CCN(c3cc(C)c(F)cc3Cl)C2=O)CC1` [Example 334, N^5-[(trans)-2-(2-chloro-4-fluoro-5-methylphenyl)-1-oxo-2-azaspiro[4.5]dec-8-yl]-N^4-(2-methoxyethyl)-1H-imidazole-4,5-dicarboxamide], the IC50 in test [1] is 0.0095 µM; on TNKS2 it was 0.0049 µM; in test [2], no less than 50 µM.
For the compound `COC(=O)c1cc(C)nc2c(C(=O)N[C@H]3CC[C@H](C(=O)Nc4c(F)cc(F)cc4Cl)CC3)cnn12` [Example 351, methyl 3-({trans-4-[(2-chloro-4,6-difluorophenyl)carbamoyl]cyclohexyl}carbamoyl)-5-methylpyrazolo[1,5-a]pyrimidine-7-carboxylate], the concentration for half-maximal inhibition (IC50) in test [1] is 6.7 µM; at TNKS2, 0.056 µM; in test [2], no less than 50 µM.
Take `COC(=O)c1cc(C)nc2c(C(=O)N[C@H]3CC[C@H](C(=O)Nc4ccc(F)cc4Cl)CC3)cnn12` [Example 352, methyl 3-({trans-4-[(2-chloro-4-fluorophenyl)carbamoyl]cyclohexyl}carbamoyl)-5-methylpyrazolo[1,5-a]pyrimidine-7-carboxylate]: the IC50 is 7.5 µM in test [1], 0.12 µM at TNKS2 and no less than 50 µM in test [2].
The like results for `Cc1c(C(C)(C)O)cnc2c(C(=O)N[C@H]3CC[C@H](C(=O)Nc4ccc(F)cc4Cl)CC3)cnn12` [Example 359, N-{trans-4-[(2-chloro-4-fluorophenyl)carbamoyl]cyclohexyl}-6-(2-hydroxypropan-2-yl)-7-methylpyrazolo[1,5-a]pyrimidine-3-carboxamide] were, in that order, 4 µM, greater than 10 µM and no less than 50 µM.
The like results for `O=C(N[C@H]1CC[C@H](C(=O)Nc2ccc(F)cc2Cl)CC1)c1cnc2ccc(O)nn12` [Example 360, N-{trans-4-[(2-chloro-4-fluorophenyl)carbamoyl]cyclohexyl}-6-hydroxyimidazo[1,2-b]pyridazine-3-carboxamide] were, in that order, 10 µM, 1.7 µM and no less than 50 µM.
Turning to `Cc1nc2c(C(=O)N[C@H]3CC[C@H](C(=O)Nc4c(F)cc(F)cc4Cl)CC3)cnn2c2c1CCC2` [Example 363, N-{trans-4-[(2-chloro-4,6-difluorophenyl)carbamoyl]cyclohexyl}-5-methyl-7,8-dihydro-6H-cyclopenta[e]pyrazolo[1,5-a]pyrimidine-3-carboxamide], the half-inhibitory concentration (IC50) was 0.021 µM in test [1], 0.019 µM on TNKS2 and no less than 50 µM in test [2].

Values taken from patent US20180148418A1, “AMIDO-SUBSTITUTED CYCLOHEXANE DERIVATIVES” (Bayer Pharma Aktiengesellschaft, priority 2015, published 2018).
